# Laboratory results from PMC6669322, “Small Molecule Binding to Alzheimer Risk Factor CD33 Promotes Aβ Phagocytosis” (iScience, 2019).
# What was measured:
# [1] = biological target: T1, CD33 S131A (Homo sapiens, UniProt P20138, S131A); experiment: SNAP-tag homogeneous time-resolved fluorescence binding assay, CD33 S131A; conditions: S131 mutated to alanine, in words
# T1 construct: human CD33 ORF (NM_001772.3), lacking its signal peptide; expressed in transfected cells; host or cells: HEK293T, transient, pT8-SNAP vector
# Protocol: (§1) We then used our structural data to design mutations of key residues interacting with P22 to assess which interactions were the most important for binding affinity. The residues were mutated into alanine, and the effect of these mutations on P22 binding affinity was assessed using a SNAP-tag homogeneous time-resolved fluorescence binding assay (see Transparent Methods and Figures 3E–3G). The R119A mutation, which destroys the salt bridge between P22 and CD33, was one of the most detrimental to binding (>30-fold loss) (Figure 2C and Table S4). […]
# (§2) HEK293T cells were cultured in DMEM (ThermoFisher Scientific # 11965092) containing 10% FBS (Hyclone # SH30070.03) and 1% Penicillin-Streptomycin (ThermoFisher Scientific # 15140122) and transfected using Fugene HD (Promega # E2312) in 10 cm plates. […] The cells were counted, centrifuged and resuspended in PBS at a concentration of 1,000 cells/μL and 10 μL were plated into each well. […] Non-specific binding was assessed by competition with 100 μM of the non-labeled P22, as well as in control (Snap-tagged dopamine D2R receptor)-transfected cells.
# (§3) Fluorescence was read with a PHERAstar plate reader using an excitation of 337 nm and emissions of 620 and 665 nm. […]
# [2] = biological target: T2, CD33 H45A (Homo sapiens, UniProt P20138, H45A); experiment: SNAP-tag homogeneous time-resolved fluorescence binding assay, CD33 H45A; conditions: H45 mutated to alanine, in words
# T2 construct: human CD33 ORF (NM_001772.3), lacking its signal peptide; expressed in transfected cells; host or cells: HEK293T, transient, pT8-SNAP vector
# Protocol: as §1, §2, §3
# [3] = biological target: T3, CD33 F21A (Homo sapiens, UniProt P20138, F21A); experiment: SNAP-tag homogeneous time-resolved fluorescence binding assay, CD33 F21A; conditions: binding affinity, F21A vs WT
# T3 construct: human CD33 ORF (NM_001772.3), lacking its signal peptide; expressed in transfected cells; host or cells: HEK293T, transient, pT8-SNAP vector
# Protocol: as §1, §2, §3
# T2 sequence (P20138 18-364 H45A): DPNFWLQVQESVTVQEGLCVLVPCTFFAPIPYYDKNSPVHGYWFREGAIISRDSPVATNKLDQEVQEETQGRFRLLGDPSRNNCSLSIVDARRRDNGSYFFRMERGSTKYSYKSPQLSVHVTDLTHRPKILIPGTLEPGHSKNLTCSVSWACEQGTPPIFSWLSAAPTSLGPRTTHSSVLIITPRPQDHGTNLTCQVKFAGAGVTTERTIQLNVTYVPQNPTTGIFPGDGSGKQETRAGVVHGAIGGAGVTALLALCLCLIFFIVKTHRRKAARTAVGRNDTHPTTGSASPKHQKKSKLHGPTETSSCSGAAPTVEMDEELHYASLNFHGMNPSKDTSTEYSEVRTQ
# T3 sequence (P20138 18-364 F21A): as the sequence (P20138 18-364 H45A) above, with F4A, A28H counted along it
# T1 sequence (P20138 18-364 S131A): as the sequence (P20138 18-364 H45A) above, with A28H, S114A counted along it
structure (smiles),measurement,setting,value
"Cc1cc(C(=O)NC[C@@H](O)[C@@H](O)[C@@H]2O[C@@](OC[C@H]3O[C@@H](O[C@H]4[C@H](O)[C@@H](O)[C@H](OCCN)O[C@@H]4CO)[C@H](O)[C@@H](O)[C@H]3O)(C(=O)O)C[C@H](O)[C@H]2NC(=O)Cn2cc(C3CCCCC3)nn2)cc(C)c1O [P22, β-D-Glucopyranoside, 2-aminoethyl O-[N-[2-(4-cyclohexyl-1H-1,2,3-triazol-1-yl)acetyl]-9-deoxy-9-[(4-hydroxy-3,5-dimethylbenzoyl)amino]-α-neuraminosyl] (2→6)-O-β-D-galactopyranosyl-(1→4)-]",impact of mutation on P22 binding affinity,[1],little to no significant impact
same,impact of mutation on P22 binding affinity,[2],little to no significant impact
same,Fold-decrease compared to WT,[3],6 fold
